In series [1] the test system is Fasciola hepatica eggs (ABZ-resistant isolate). The experiment in a line: Egg hatch test (EHT), ABZ-resistant isolate. In kind it is cell-based. Particulars: 5 µM, mean ± SEM. An outline of the steps: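 Eggs came from gallbladders of untreated sheep infected with an ABZ-resistant isolate. BZDs with >80% activity at 10 µM were tested on 100–120 eggs, exposed 12 h at 25 °C in the dark (≤1% DMSO), washed, and held 14 days. Hatching was counted after 2 h light, and ovicidal activity was calculated against the DMSO control.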

Series [2] in a line: Cytotoxicity assay, alamarBlue. In kind it is cell-based, human. To be noted: human, HepG2 cells; 72 h exposure, alamarBlue; read-out: CC50 Hep-G2. On the procedure: The effect of the BZDs on cell viability was assessed on a human hepatocarcinoma HepG2 (ATCC® HB-8065™, USA) cell line. Only compounds screened at a concentration of 10 µM were evaluated. The detailed protocol is described in a previous study carried out by our research group. Briefly, 10,000 cells were seeded on 96-well plates and incubated with different concentrations of the compounds ranging from 1 to 100 µM at 37 °C and 5% CO2. After 72 h of exposure, viability of the cells was assessed using the alamarBlue (Fisher Scientific®, Spain) staining method according to the manufacturer’s recommendations.
The data are represented as mean ± standard error of media (SEM).
A general note: Resazurin is reduced to fluorescent resorufin, in cell work by metabolically active cells.

Series [3] can be described thus: Intestinal tolerability assay on murine intestinal organoids. In kind it is cell-based, mouse. To be noted: C57BL/6, mouse, murine small-intestinal organoids, 72 h. Here is the method:
The murine intestinal organoid cultures were prepared following Stemcell Technologies™ protocols (https://www.stemcell.com/intestinal-epithelial-organoid-culture-with-intesticult-organoid-growth-medium-mouse-lp.html#protocols). Small intestine sections from C57BL/6 mice were excised, washed with ice-cold PBS, minced, and 2 mm segments were washed extensively. The segments were treated with Gentle Cell Dissociation Reagent (Stemcell Technologies™, Canada), resuspended in ice-cold PBS with 0.1% BSA and filtered. This process was repeated four times, resulting in four fractions. Cells from each fraction were centrifuged, washed, and resuspended in ice-cold DMEM/F12 supplemented with glutamine and HEPES 15 mM. Each fraction was mixed with Geltrex GFR LDEV-free (Gibco, Thermo Fisher Scientific, USA) and IntestiCult™ Organoid Grow Medium Mouse (Stemcell Technologies™, Canada), added to a 24-well plate and incubated at 37 °C for 10 min for matrix polymerization. The organoids were cultured in IntestiCult™ Organoid Grow Medium Mouse, with medium changes every 2 days and splitting after 7 days.
For intestinal tolerability assays, selected hit compounds were tested in mouse intestinal organoids at 25 and 50 µM final concentrations. The protocol, based on a previous work, involved the addition of Gentle Cell Dissociation Reagent (Stemcell Technologies™, Canada) on matrix domes, the disruption of the matrix, and the incubation the suspension. After centrifugation, cells were resuspended in DMEM/F12 supplemented with glutamine and HEPES 15 mM and centrifugated again. The pellet was resuspended in a mix of Geltrex GFR LDEV-free and IntestiCult™ Organoid Grow Medium Mouse. The mix was plated in 384-well plates, and after 4 days, mature organoids were exposed to the compounds. The positive control was hydrogen peroxide (0.15% v/v), and the negative control was DMSO (0.2%). Viability after 72 h was assessed using the alamarBlue assay.

Series [4] deals with Teladorsagia circumcincta eggs. To be noted: type II BZDs; read-out: IC50 against T. circumcincta eggs; cited from earlier work.

Each structure is given as a SMILES string. Several values for one entry are separate records, joined by “and”; a condition that tells them apart may be missing. Equal values may be shown once.

The text below walks through data of paper PMC10993450, “New benzimidazole derivative compounds with in vitro fasciolicidal properties” (Parasites & Vectors, 2024).

A word on the CC50: it is the concentration giving 50% cytotoxicity. As a reminder, the viability is a read-out of living cells in per cent, often relative to untreated cells. Higher therefore signals less harm to the cells. As a reminder, the IC50 is the concentration that inhibits the measured activity by half.

In the case of `Cc1ccc2[nH]c(NCc3cccs3)nc2c1` [BZD31], the “% Ovicidal activity resistant isolate” value in series [1] was 53% and 53.24 ± 20.94%. In series [2], the CC50 at 72 h was above 50 µM. In series [3], this compound came in with a viability at 72 h, 25 µM of 60.5% and a viability at 72 h, 50 µM of 52.4%.

Take `Cc1ccc2[nH]c(NC(=O)c3ccccc3)nc2c1` [BZD46]: in series [1], the “% Ovicidal activity resistant isolate” value turned out to be 11.06 ± 05.30%. Besides, in series [1] (listed as BZD-46), the “% Ovicidal activity resistant isolate” value is given as “below 13%”. In addition, the CC50 at 72 h in series [2] is above 100 µM. Also, in series [3], the viability at 72 h, 25 µM turned out to be 99.7% and the viability at 72 h, 50 µM was above 87%. For the same compound, the IC50 in series [4] is around 1 µM.

As for `COc1ccc2[nH]c(NC(=O)c3ccccc3)nc2c1` [BZD56], the “% Ovicidal activity resistant isolate” value in series [1] was 12.39 ± 03.71%. Besides, the “% Ovicidal activity resistant isolate” value in series [1] (listed as BZD-56) is “below 13%”. Besides, the CC50 at 72 h in series [2] is above 100 µM. In series [3], this compound yielded a viability at 72 h, 25 µM of 82.5% and a viability at 72 h, 50 µM above 87%. The IC50 in series [4] is around 1 µM.

Turning to `O=C(Nc1nc2cc(Cl)ccc2[nH]1)c1ccccc1` [BZD59], the “% Ovicidal activity resistant isolate” value is listed as 06.28 ± 05.20% in series [1] and “below 13%” in series [1] (listed as BZD-59). The CC50 at 72 h in series [2] is above 100 µM. Also, the viability at 72 h, 25 µM in series [3] is 82.7%. Also, the viability at 72 h, 50 µM in series [3] came out at 56.7%. Further, in series [4], the IC50 was around 1 µM.
